Results reported in ChEMBL document CHEMBL5247592, “Discovery of novel VEGFR-2-PROTAC degraders based on the localization of lysine residues via recruiting VHL for the treatment of gastric cancer” (Eur J Med Chem, 2022).
Calls of active or inactive are those of the source. The calls are words filed in the database; no cut-off is given here.

Legend:
[1] = tested on: HGC-27; experiment: Inhibition of cell migration in human HGC-27 cells assessed as suppression of cell migration at 1 uM incubated for 6 hrs by wound healing assay relative to control; type: functional
[2] = tested on: HGC-27; experiment: Inhibition of cell migration in human HGC-27 cells assessed as suppression of cell migration at 3.3 uM incubated for 24 hrs by wound healing assay relative to control; type: functional
[3] = tested on: HGC-27; experiment: Induction of apoptosis in human HGC-27 cells assessed as necrotic cells at 0.33 uM incubated for 24 hrs by Annexin V-FITC/PI staining based analysis (reference value: 0.65 %); type: functional
[4] = tested on: HGC-27; experiment: Inhibition of cell migration in human HGC-27 cells at 0.033 to 3.33 uM by wound healing assay; type: functional, cell-based; conditions: dose 0.033-3.33 µM, time <= 24.0 hrs, TDE = time-dependent effect
[5] = tested on: HGC-27; experiment: Induction of apoptosis in human HGC-27 cells assessed as viable cells at 0.1 uM incubated for 24 hrs by Annexin V-FITC/PI staining based analysis (reference value: 95.3%); type: functional; conditions: read-out: Activity
[6] = tested on: HGC-27; experiment: Induction of cell cycle arrest in human HGC-27 cells assessed as G0/G1 phase cells at 3.33 uM incubated for 24 hrs by PI staining based flow cytometric analysis (reference value: 47.4%); type: functional
[7] = target: T1, von Hippel-Lindau disease tumor suppressor/Vascular endothelial growth factor receptor 2 (Homo sapiens, UniProt P35968+P40337); experiment: PROTAC activity at VHL/VEGFR2 in human HGC-27 cells assessed as residual activity by measuring VEGFR2 expression level at 1 uM incubated for 24 hrs followed by compound washout and measured after 12 hrs by Western blot analysis relative to control; type: cell-based
T1 sequence (P35968 20-1356 limits assumed): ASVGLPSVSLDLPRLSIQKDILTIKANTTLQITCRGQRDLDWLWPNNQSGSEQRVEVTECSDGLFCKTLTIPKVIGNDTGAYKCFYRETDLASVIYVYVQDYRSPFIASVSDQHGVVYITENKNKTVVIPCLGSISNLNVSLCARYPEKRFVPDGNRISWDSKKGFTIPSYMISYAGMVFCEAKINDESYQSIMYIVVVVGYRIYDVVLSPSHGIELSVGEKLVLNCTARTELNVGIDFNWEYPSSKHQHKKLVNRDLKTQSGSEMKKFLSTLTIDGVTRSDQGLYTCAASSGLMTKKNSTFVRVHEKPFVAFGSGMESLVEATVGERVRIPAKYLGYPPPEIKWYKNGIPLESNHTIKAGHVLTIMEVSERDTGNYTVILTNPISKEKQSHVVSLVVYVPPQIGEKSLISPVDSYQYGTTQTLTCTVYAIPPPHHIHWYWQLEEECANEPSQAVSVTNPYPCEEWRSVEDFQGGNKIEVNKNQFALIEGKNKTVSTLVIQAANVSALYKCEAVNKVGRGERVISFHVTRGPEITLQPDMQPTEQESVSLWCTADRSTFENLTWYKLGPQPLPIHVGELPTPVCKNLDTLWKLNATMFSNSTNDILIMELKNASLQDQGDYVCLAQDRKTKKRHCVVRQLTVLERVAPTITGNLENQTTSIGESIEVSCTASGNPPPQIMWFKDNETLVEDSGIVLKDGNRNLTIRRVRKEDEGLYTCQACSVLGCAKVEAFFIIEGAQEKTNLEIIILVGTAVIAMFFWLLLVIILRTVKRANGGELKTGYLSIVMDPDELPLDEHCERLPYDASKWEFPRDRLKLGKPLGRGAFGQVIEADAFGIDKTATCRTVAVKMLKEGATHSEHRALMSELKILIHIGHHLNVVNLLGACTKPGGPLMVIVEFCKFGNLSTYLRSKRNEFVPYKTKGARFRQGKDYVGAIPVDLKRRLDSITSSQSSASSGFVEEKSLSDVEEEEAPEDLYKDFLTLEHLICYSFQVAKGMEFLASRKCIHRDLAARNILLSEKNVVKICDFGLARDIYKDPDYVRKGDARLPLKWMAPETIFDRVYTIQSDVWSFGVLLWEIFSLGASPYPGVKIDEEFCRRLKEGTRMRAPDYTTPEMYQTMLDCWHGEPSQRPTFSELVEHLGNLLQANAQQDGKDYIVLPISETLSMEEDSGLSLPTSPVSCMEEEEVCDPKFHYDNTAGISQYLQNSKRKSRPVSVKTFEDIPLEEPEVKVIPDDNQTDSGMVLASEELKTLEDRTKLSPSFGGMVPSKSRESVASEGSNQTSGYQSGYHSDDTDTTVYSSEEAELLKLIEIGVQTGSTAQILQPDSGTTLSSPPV
T1 sequence (P40337 whole entry partner): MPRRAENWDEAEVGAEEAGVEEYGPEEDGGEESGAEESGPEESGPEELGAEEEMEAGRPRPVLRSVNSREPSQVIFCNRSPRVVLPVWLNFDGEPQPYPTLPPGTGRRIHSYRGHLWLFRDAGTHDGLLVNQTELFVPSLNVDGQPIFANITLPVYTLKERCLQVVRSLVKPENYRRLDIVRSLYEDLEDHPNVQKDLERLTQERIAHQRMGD

[8] = tested on: HGC-27; experiment: Induction of apoptosis in human HGC-27 cells assessed as early apoptotic cells at 1 uM incubated for 24 hrs by Annexin V-FITC/PI staining based analysis (reference value: 1.7 %); type: functional
[9] = tested on: HGC-27; experiment: Induction of cell cycle arrest in human HGC-27 cells assessed as S phase cells at 0.033 uM incubated for 24 hrs by PI staining based flow cytometric analysis (reference value: 26.4%); type: functional
[10] = tested on: HGC-27; experiment: Induction of apoptosis in human HGC-27 cells assessed as early apoptotic cells at 0.1 uM incubated for 24 hrs by Annexin V-FITC/PI staining based analysis (reference value: 1.7 %); type: functional
[11] = tested on: HGC-27; experiment: Induction of cell cycle arrest in human HGC-27 cells assessed as G0/G1 phase cells at 0.33 uM incubated for 24 hrs by PI staining based flow cytometric analysis (reference value: 47.4%); type: functional
[12] = target: T1, von Hippel-Lindau disease tumor suppressor/Vascular endothelial growth factor receptor 2; experiment: PROTAC activity at VHL/VEGFR2 in human HGC-27 cells assessed as reduction in VEGFR2 protein level at 1 uM by Western blot analysis; type: cell-based; conditions: time 12-36 hrs, TDE = time-dependent effect
[13] = tested on: HGC-27; experiment: Inhibition of colony formation in human HGC-27 cells at 1 to 3.33 uM incubated for 8 days by crystal violet staining based analysis relative to control; type: functional; conditions: dose 1-3.33 µM, time 8 day
[14] = tested on: HGC-27; experiment: Induction of cell cycle arrest in human HGC-27 cells assessed as G0/G1 phase cells at 1 uM incubated for 24 hrs by PI staining based flow cytometric analysis (reference value: 47.4%); type: functional
[15] = target: T1, von Hippel-Lindau disease tumor suppressor/Vascular endothelial growth factor receptor 2; experiment: PROTAC activity at VHL/VEGFR2 in human HGC-27 cells assessed as reduction in VEGFR2 protein expression at 1 uM measured upto 24 hrs in the presence of cycloheximide by Western blot analysis; type: cell-based
[16] = tested on: HGC-27; experiment: Induction of apoptosis in human HGC-27 cells assessed as necrotic cells at 3.3 uM incubated for 24 hrs by Annexin V-FITC/PI staining based analysis (reference value: 0.65 %); type: functional
[17] = tested on: HGC-27; experiment: Induction of cell cycle arrest in human HGC-27 cells assessed as S phase cells at 0.33 uM incubated for 24 hrs by PI staining based flow cytometric analysis (reference value: 26.4%); type: functional
[18] = target: T1, von Hippel-Lindau disease tumor suppressor/Vascular endothelial growth factor receptor 2; experiment: PROTAC activity at VHL/VEGFR2 in human HGC-27 cells assessed as residual activity by measuring VEGFR2 expression level at 1 uM incubated for 24 hrs followed by compound washout and measured after 8 hrs by Western blot analysis relative to control; type: cell-based
[19] = Effect on VEGFR2 mRNA expression in human HGC-27 cells at 0.033 uM incubated for 24 hrs by qPCR analysis relative to control; type: functional
[20] = tested on: HGC-27; experiment: Induction of apoptosis in human HGC-27 cells assessed as early apoptotic cells at 3.3 uM incubated for 24 hrs by Annexin V-FITC/PI staining based analysis (reference value: 1.7 %); type: functional

Activity [7]: 66.3%
Activity [12]: Tde
Activity [15]: Active
Activity [18]: 46%
Structure (SMILES): Cc1ccc(NC(=O)Cn2cc(-c3ccc4c(NC(=O)c5ccc(NC(=O)CCCCCCCCC(=O)N[C@H](C(=O)N6C[C@H](O)C[C@H]6C(=O)NCc6ccc(-c7scnc7C)cc6)C(C)(C)C)cc5)n[nH]c4c3)cn2)cc1C(F)(F)F
inhibition at 1 µM [1]: 11.7%
inhibition at 3.3 µM [2]: 32.7%
Activity [3]: 0.96%
inhibition [4]: Tde
viability at 0.1 µM [5]: 92.1%
Activity [6]: 14.1%
Activity [8]: 8.6%
Activity [9]: 27.9%
Activity [10]: 3.5%
Activity [11]: 23.9%
inhibition (INH) [13]: 100%
Activity [14]: 12.5%
Activity [16]: 0.52%
Activity [17]: 23.4%
Activity [19]: 99.3%
Activity [20]: 15%
